Data as given in patent US5726203A, “Qinghaosu derivatives against AIDS” (priority 1993, dated 1998).
Structures can show the parent of a compound that is named as a salt. Where two headings read alike, the source gives them in different places.

Tests used:
Acute toxicity in mice = assay type: in vivo; conditions: mouse, in vivo
Method: Animals: Hybrid swiss strain mice (provided by Animal House of Institute of Chinese Mateia Media, China Academy of Traditional Chinese Medicine), 20-22 grams, less than 6 weeks age of both sexes fed in laboretory for 3-5 days observation and a random taking food and drinking.
Drugs: Dihydroqinghaosu-methylcarbamate and dihydroqinghaosu-benzenecarbamate.
Above two drugs in powder form were dissolved into peanut oil. The biggest dose were 2000 mg/kg and 2161 mg/kg respectively. The distances between two dose groups were 0.7 and 0.68 respectively, with 5 dose groups each drugs.
Method: The mice were given single dose of above compound respectively intragastrically, the acute intoxication manifestrations were observed the LD value (LD5, LD50 and LD95) and B value were determined by three days mortality.

HIV-1 (MT4) = assay: Anti-HIV effect on MT4 cells, virus antigen expression (immunoenzymatic method); assay type: cell-based
Source text: The virus used was HIV-1 which had been obtained from Professor Montagnier of the Pastear Institute, France. The virus titer used in the experiment was 1×10^4 TCID50 /ml. The cell culture used was CEM cell line which was cultivated in the HIV laboratory of Institute of Virology, Chinese Academy of Preventive Medicine, for cultivation storage of HIV-1.
The compounds used in the experiment were qinghaosu, dihydroqinghaosu, Artesunate, Artemether, dihydroqinghaosu-methylcarbamate, dihydroqinghaosu-benzenecarbamate, qinghaosu-morpholinyl propylether maleate, dihydroqinghaosu-diethyl amino ethyl ether maleate, deoxyqinghaosu-morpholinyl ethyl ether maleate, qinghaosu-morpholinyl propanol ether maleate, qinghaosu-3,5-dimonpholinyl methyl-4-hydroxy benzyl ether maleate, dihydroqinghaosu-m-chlorobenzoate, qinghaosu-3-pyrrolidinylmethyl-4-hydroxybenzoate oxalate, and qinghaosu-3-morpholinylmethyl-4-hydroxybenzoate oxalate. […] The concentration of the original solution of these compounds were all 1 mg/ml.
(§1) a. Freshly cultured MT4 cells (5×10^5 /ml) were co-cultivated with the virus fluid (10^3 TCID50 /ml) in a CO2 incubator at 37° C. for 1-1.5 hours. RPMI 1640 complete medium (containing 10% Bovine serum and antibiotics, such as penicillin) was used to wash the unbound virus.
(§2) Complete medium was added to correct the concentration for use.
(§3) The experiment was carried out on the plates with 96 wells. 0.1 ml of the above-mentioned infected MT4 cell suspension was added into each well, and then 0.1 ml of various concentrations of the drugs were added. […] Each concentration of the drugs was added into two wells. Both the experiment group and the control group were incubated in a CO2 incubator at 37° C. The drug solution were changed 3 days later, and the following observations were carried out 6 days afterwards.
b. Observation on the growth situation of cells. Trypan blue dye was used to observe the quantity of live cells in each group.
(§4) c. Determination of the virus antigen expression. The immunoenzymatic method was used to examine the virus antigen expression. Cells from each group were separately smeared in two wells. They were fixed with cold acetone, HIV-positive serum was dropped into the wells. After incubated in a CO2 incubator at 37° C. for 30 minutes, they were washed with PBS for 3 times. Enzyme-labelled SPA was dropped into the wells. They were incubated in the same condition for 30 minutes, washed with PBS for 3 times, and then put in substrate solution to stain for 2-3 minutes, washed with distilled water, and observed under microscope. Normal cells were colorless, whereas virus-carrying cells appeared browrish red.
The mark used were as follows:
The experiment was repeated two to three times.
The concentration of the original fluid of these compounds were all 1 mg/ml. 0.1 ml was taken and added into 0.1 ml of virus-carrying cell suspension, thus the reaction concentrations were as follows: in the original fluid group, 0.1 mg/0.2 ml, i.e., 0.5 mg/ml; in 1×10^-1group, 0.05 mg/ml; in 1×10^-2 group, 0.005 mg/ml; in 1×10^-3 group, 0.0005 mg/ml, i.e., 0.5 μg/ml; and on the analogy of this.

U937 HIV-1 [1] = assay: Inhibition effect on HIV-1 infected U937 cells (macrophage cell line), HIV antigen test (IE); assay type: cell-based; conditions: U937 HIV-1; 50 μg/ml
Method: as §1, §2, §3, §4
(§5) Furthermore, a part of the compounds according to the present invention were used to test their inhibition effect on U937 cell line (macrophage cell line)according to the methods in Experiment 1.

U937 HIV-1 [2] = assay: Inhibition effect on HIV-1 infected U937 cells, activity of reverse transcriptase; assay type: cell-based; conditions: 50 μg/ml, control 24502
Source text: as §5

[3] = cited from earlier work
Plasmodium Berghei = assay: Peters' four day inhibition test in mice, erythrocytic stage of Plasmodium Berghei; assay type: in vivo; conditions: once a day D0-D3, Hybrid Kunming strain mice, read-out: SD50 (the source's name)
Source text: Effect on Erythrocytic Stage of Plasmodium Berghei 1. "Four day inhibition test" in mice To determinate the SD50 with Peters' "four day inhibition test". Hybrid Kunming strain mice, body weight 18-22 g, were inculated with 1×10^7 parasites infected RBC intraperitoneally on D0. Dihydroqinghaosu-methylcarbamate, dihydroqinghaosu-butylcarbamate, dihydroqinghaosu-benzenecarbamate and dihydroqinghaosu-4-nitrobenzenecarbamate with different concentration were given once a day from D0 -D3. Blood smears from mouse's tail were made on D4, stained with Gimsa reagent and examined under microscope to count the infected and uninfected erthrocyte to get infected rate. Inhibitory rates of different dosages were calculated by following formula. The SD50 was calculated by the simplified probit analysis: [formula]

Row | Compound | effect on HIV-1 (MT4), virus antigen expression (HIV-1 (MT4); 1 × 10^-1 (50 μg/ml)) | effect on HIV-1 (MT4), virus antigen expression (HIV-1 (MT4); 1 × 10^-2 (5 μg/ml)) | effect on HIV-1 (MT4), virus antigen expression (HIV-1 (MT4); 1 × 10^-3 (0.5 μg/ml)) | other results
1 | CO[C@H]1O[C@@H]2O[C@@]3(C)CC[C@H]4[C@H](C)CC[C@@H]([C@H]1C)[C@@]24OO3 [Artemether, reference compound] | - (positive cells were not seen in the whole well) | - (positive cells were not seen in the whole well) | ± (there were only 1-2 doubtful positive cells in whole well) | LD50 (Acute toxicity in mice; im, I.M. (Intramuscular injection)): 263 mg/kg; effect on HIV-1 (MT4), virus antigen expression (HIV-1 (MT4); 1 × 10^-4 (0.05 μg/ml)): + (there were 2-3 or more positive cells in the whole well)
2 | C[C@H]1[C@H](OC(=O)CCC(=O)O)O[C@@H]2O[C@@]3(C)CC[C@H]4[C@H](C)CC[C@@H]1[C@@]24OO3 [Artesunate, reference compound] | - (positive cells were not seen in the whole well) | - (positive cells were not seen in the whole well) | - (positive cells were not seen in the whole well) | LD50 (Acute toxicity in mice; I.V. (Intravenous injection)): 769 mg/kg; effect on HIV-1 (MT4), virus antigen expression (HIV-1 (MT4); 1 × 10^-4 (0.05 μg/ml)): + (there were 2-3 or more positive cells in the whole well); Antigen test (IE) (U937 HIV-1 [1]): - (positive cells were not seen in the whole well); Activity of reverse transcription (CPM) (U937 HIV-1 [2]): 4846 CPM
3 | Nc1ccn([C@H]2CC[C@@H](CO)O2)c(=O)n1 [DDC, di-deoxycytidine] |  |  |  | toxicity to peripheral nerves ([3]; appears 6 weeks after drug administration): toxicity to peripharal nerves
4 | O=c1[nH]cnc2c1ncn2[C@H]1CC[C@@H](CO)O1 [DDI, di-deoxytrophicardyl] |  |  |  | toxicity to peripheral nerves ([3]; in vivo): toxicity to peripharal nerves
5 | C[C@H]1[C@@H](O)O[C@@H]2O[C@@]3(C)CC[C@H]4[C@H](C)CC[C@@H]1[C@@]24OO3 [Dihydroqinghaosu, dihydroqinghaosu, reference compound] | - (positive cells were not seen in the whole well) | - (positive cells were not seen in the whole well) | ± (there were only 1-2 doubtful positive cells in whole well) | LD50 (Acute toxicity in mice; po, P.O. (per os)): 765 mg/kg; effect on HIV-1 (MT4), virus antigen expression (HIV-1 (MT4); 1 × 10^-4 (0.05 μg/ml)): + (there were 2-3 or more positive cells in the whole well)
6 | CC1CCC2C(C)C(OC(=O)Nc3ccc([N+](=O)[O-])cc3)OC3OC4(C)CCC1C32OO4 (stereo not shown) [Dihydroqinghaosu-4-nitrobenzenecarbamate, Dihydroqinghaosu-P-Nitrobenzenecarbamate] |  |  |  | ED50 (Plasmodium Berghei): 0.3 mg/kg
7 | CCCCNC(=O)OC1OC2OC3(C)CCC4C(C)CCC(C1C)C24OO3 (stereo not shown) [Dihydroqinghaosu-butylcarbamate, dihydroqinghaosu-butylcarbamate] |  |  |  | ED50 (Plasmodium Berghei): 0.25 mg/kg
8 | CC1CCC2C(C)C(OC(=O)c3cccc(Cl)c3)OC3OC4(C)CCC1C32OO4 (stereo not shown) [Dihydroqinghaosu-m-chlorobenzoate, dihydroqinghaosu-m-chlorobenzoate] | - (positive cells were not seen in the whole well) | - (positive cells were not seen in the whole well) | + (there were 2-3 or more positive cells in the whole well) | 
9 | C[C@@H]1CC[C@H]2[C@@H](C)C(=O)O[C@@H]3O[C@@]4(C)CC[C@@H]1[C@]32OO4 [Qinghaosu, Qinghaosu (Artemisinin)] | - (positive cells were not seen in the whole well) | - (positive cells were not seen in the whole well) | + (there were 2-3 or more positive cells in the whole well) | effect on HIV-1 (MT4), virus antigen expression (HIV-1 (MT4); 1 × 10^-4 (0.05 μg/ml)): + (there were 2-3 or more positive cells in the whole well)
10 | CCN(CC)CCOC1OC2OC3(C)CCC4C(C)CCC(C1C)C24OO3 (stereo not shown) [dihydroqinghaosu-diethyl amino ethyl ether maleate] | ± (there were only 1-2 doubtful positive cells in whole well) | + (there were 2-3 or more positive cells in the whole well) | + (there were 2-3 or more positive cells in the whole well) | 
11 | CC1CCC2C(C)C(OCc3cc(CN4CCOCC4)c(O)c(CN4CCOCC4)c3)OC3OC4(C)CCC1C32OO4.O=C(O)/C=C\C(=O)O (stereo not shown) [qinghaosu-3,5-dimonpholinyl methyl-4-hydroxy benzyl ether maleate] | + (there were 2-3 or more positive cells in the whole well) | + (there were 2-3 or more positive cells in the whole well) | + (there were 2-3 or more positive cells in the whole well) | 
12 | Deoxyquinghaosu-morpholinyl propanol ether maleate | - (positive cells were not seen in the whole well) | + (there were 2-3 or more positive cells in the whole well) | - (positive cells were not seen in the whole well) | 
13 | qinghaosu-3-morpholinylmethyl-4-hydroxybenzoate oxalate | ± (there were only 1-2 doubtful positive cells in whole well) | + (there were 2-3 or more positive cells in the whole well) | + (there were 2-3 or more positive cells in the whole well) | 
14 | qinghaosu-3-pyrrolidinylmethyl-4-hydroxybenzoate oxalate | - (positive cells were not seen in the whole well) | + (there were 2-3 or more positive cells in the whole well) | - (positive cells were not seen in the whole well) | 
15 | qinghaosu-morpholinyl propanol ether maleate | + (there were 2-3 or more positive cells in the whole well) | + (there were 2-3 or more positive cells in the whole well) | + (there were 2-3 or more positive cells in the whole well) | 
16 | qinghaosu-morpholinyl propylether maleate | - (positive cells were not seen in the whole well) | + (there were 2-3 or more positive cells in the whole well) | + (there were 2-3 or more positive cells in the whole well) | 
